# The CheMixHub viscosity set
# “And” between values parts separate entries of the source, which are not always exact repeats. Equal values may be shown once. ± gives the uncertainty stated by the source.
# Experiment: xn = mol fraction of the nth substance listed
compound,measurement,setting,value
O=C(O)c1ccccc1 + CCCO,viscosity,"298.15 K, 101 kPa, x1 = 0.1645",2.892 ± 0.074 mPa·s
same,viscosity,"298.15 K, 101.33 kPa, x1 = 0.2",2.892 ± 0.02 mPa·s
same,viscosity,"303.15 K, 101 kPa, x1 = 0.164",2.531 ± 0.021 mPa·s
same,viscosity,"303.15 K, 101 kPa, x1 = 0.1645",2.531 ± 0.065 mPa·s
same,viscosity,"303.15 K, 101 kPa, x1 = 0.178",2.603 ± 0.022 mPa·s
same,viscosity,"303.15 K, 101 kPa, x1 = 0.197",2.724 ± 0.023 mPa·s
same,viscosity,"303.15 K, 101 kPa, x1 = 0.216",2.844 ± 0.024 mPa·s and 2.844 ± 0.072 mPa·s
same,viscosity,"303.15 K, 101.33 kPa, x1 = 0.1645",2.531 ± 0.067 mPa·s
same,viscosity,"303.15 K, 101.33 kPa, x1 = 0.178",2.603 ± 0.069 mPa·s
same,viscosity,"303.15 K, 101.33 kPa, x1 = 0.1975",2.734 ± 0.072 mPa·s
same,viscosity,"303.15 K, 101.33 kPa, x1 = 0.2",2.531 ± 0.018 mPa·s and 2.531 ± 0.067 mPa·s
same,viscosity,"303.15 K, 101.33 kPa, x1 = 0.216",2.844 ± 0.075 mPa·s
same,viscosity,"303.15 K, 101.33 kPa, x1 = 0.22",2.844 ± 0.02 mPa·s and 2.844 ± 0.075 mPa·s
same,viscosity,"308.15 K, 101 kPa, x1 = 0.1645",2.243 ± 0.057 mPa·s
same,viscosity,"308.15 K, 101 kPa, x1 = 0.216",2.498 ± 0.064 mPa·s
same,viscosity,"308.15 K, 101.33 kPa, x1 = 0.2",2.243 ± 0.016 mPa·s and 2.243 ± 0.06 mPa·s
same,viscosity,"308.15 K, 101.33 kPa, x1 = 0.22",2.498 ± 0.017 mPa·s and 2.498 ± 0.066 mPa·s
same,viscosity,"313.15 K, 101 kPa, x1 = 0.1645",1.988 ± 0.051 mPa·s
same,viscosity,"313.15 K, 101 kPa, x1 = 0.216",2.206 ± 0.056 mPa·s
same,viscosity,"313.15 K, 101.33 kPa, x1 = 0.2",1.988 ± 0.014 mPa·s and 1.988 ± 0.053 mPa·s
same,viscosity,"313.15 K, 101.33 kPa, x1 = 0.22",2.206 ± 0.015 mPa·s and 2.206 ± 0.058 mPa·s
same,viscosity,"318.15 K, 101 kPa, x1 = 0.164",1.77 ± 0.017 mPa·s
same,viscosity,"318.15 K, 101 kPa, x1 = 0.1645",1.77 ± 0.045 mPa·s
same,viscosity,"318.15 K, 101 kPa, x1 = 0.178",1.816 ± 0.017 mPa·s
same,viscosity,"318.15 K, 101 kPa, x1 = 0.197",1.881 ± 0.018 mPa·s
same,viscosity,"318.15 K, 101 kPa, x1 = 0.216",1.965 ± 0.019 mPa·s and 1.965 ± 0.05 mPa·s
same,viscosity,"318.15 K, 101.33 kPa, x1 = 0.1645",1.77 ± 0.047 mPa·s
same,viscosity,"318.15 K, 101.33 kPa, x1 = 0.178",1.816 ± 0.049 mPa·s
same,viscosity,"318.15 K, 101.33 kPa, x1 = 0.1975",1.881 ± 0.05 mPa·s
same,viscosity,"318.15 K, 101.33 kPa, x1 = 0.2",1.77 ± 0.012 mPa·s and 1.77 ± 0.047 mPa·s
same,viscosity,"318.15 K, 101.33 kPa, x1 = 0.216",1.965 ± 0.053 mPa·s
same,viscosity,"318.15 K, 101.33 kPa, x1 = 0.22",1.965 ± 0.014 mPa·s and 1.965 ± 0.052 mPa·s
C1CCCCC1 + CCO,viscosity,"293.15 K, 101.3 kPa, x1 = 0.0565",1.143 ± 0.019 mPa·s
same,viscosity,"293.15 K, 101.3 kPa, x1 = 0.2674",1.028 ± 0.017 mPa·s
same,viscosity,"293.15 K, 101.3 kPa, x1 = 0.3539",0.9953 ± 0.017 mPa·s
same,viscosity,"293.15 K, 101.3 kPa, x1 = 0.4506",0.9698 ± 0.016 mPa·s
same,viscosity,"293.15 K, 101.3 kPa, x1 = 0.5626",0.9436 ± 0.016 mPa·s
same,viscosity,"293.15 K, 101.3 kPa, x1 = 0.6898",0.9184 ± 0.015 mPa·s
same,viscosity,"293.15 K, 101.3 kPa, x1 = 0.8348",0.9099 ± 0.015 mPa·s
same,viscosity,"298.15 K, 101 kPa, x2 = 0.0396",0.871 ± 0.008 mPa·s
same,viscosity,"298.15 K, 101 kPa, x2 = 0.0718",0.867 ± 0.008 mPa·s
same,viscosity,"298.15 K, 101 kPa, x2 = 0.1435",0.851 ± 0.008 mPa·s
same,viscosity,"298.15 K, 101 kPa, x2 = 0.3225",0.839 ± 0.008 mPa·s
same,viscosity,"298.15 K, 101 kPa, x2 = 0.4832",0.864 ± 0.008 mPa·s
same,viscosity,"298.15 K, 101 kPa, x2 = 0.6269",0.901 ± 0.009 mPa·s
same,viscosity,"298.15 K, 101 kPa, x2 = 0.7067",0.923 ± 0.009 mPa·s
same,viscosity,"298.15 K, 101 kPa, x2 = 0.8205",0.967 ± 0.009 mPa·s
same,viscosity,"298.15 K, 101.3 kPa, x1 = 0.0565",1.037 ± 0.018 mPa·s
same,viscosity,"298.15 K, 101.3 kPa, x1 = 0.1188",0.9995 ± 0.017 mPa·s
same,viscosity,"298.15 K, 101.3 kPa, x1 = 0.1894",0.9602 ± 0.016 mPa·s
same,viscosity,"298.15 K, 101.3 kPa, x1 = 0.2674",0.9303 ± 0.016 mPa·s
same,viscosity,"298.15 K, 101.3 kPa, x1 = 0.3539",0.9067 ± 0.015 mPa·s
same,viscosity,"298.15 K, 101.3 kPa, x1 = 0.4506",0.8821 ± 0.015 mPa·s
same,viscosity,"298.15 K, 101.3 kPa, x1 = 0.5626",0.8589 ± 0.015 mPa·s
same,viscosity,"298.15 K, 101.3 kPa, x1 = 0.6898",0.8388 ± 0.014 mPa·s
same,viscosity,"298.15 K, 101.3 kPa, x1 = 0.8348",0.8319 ± 0.014 mPa·s
same,viscosity,"298.15 K, 101.33 kPa, x1 = 0.0999",1.003 ± 0.013 mPa·s
same,viscosity,"298.15 K, 101.33 kPa, x1 = 0.1993",0.951 ± 0.012 mPa·s
same,viscosity,"298.15 K, 101.33 kPa, x1 = 0.2995",0.923 ± 0.012 mPa·s
same,viscosity,"298.15 K, 101.33 kPa, x1 = 0.3987",0.892 ± 0.011 mPa·s
same,viscosity,"298.15 K, 101.33 kPa, x1 = 0.5003",0.872 ± 0.011 mPa·s
same,viscosity,"298.15 K, 101.33 kPa, x1 = 0.55",0.861 ± 0.011 mPa·s
same,viscosity,"298.15 K, 101.33 kPa, x1 = 0.6011",0.851 ± 0.011 mPa·s
same,viscosity,"298.15 K, 101.33 kPa, x1 = 0.7014",0.831 ± 0.011 mPa·s
same,viscosity,"298.15 K, 101.33 kPa, x1 = 0.803",0.826 ± 0.011 mPa·s
same,viscosity,"298.15 K, 101.33 kPa, x1 = 0.9006",0.84 ± 0.011 mPa·s
same,viscosity,"303.15 K, 101.3 kPa, x1 = 0.0565",0.947 ± 0.016 mPa·s
same,viscosity,"303.15 K, 101.3 kPa, x1 = 0.1188",0.9133 ± 0.016 mPa·s
same,viscosity,"303.15 K, 101.3 kPa, x1 = 0.1894",0.8784 ± 0.015 mPa·s
same,viscosity,"303.15 K, 101.3 kPa, x1 = 0.2674",0.8522 ± 0.015 mPa·s
same,viscosity,"303.15 K, 101.3 kPa, x1 = 0.3539",0.8288 ± 0.014 mPa·s
same,viscosity,"303.15 K, 101.3 kPa, x1 = 0.4506",0.8084 ± 0.014 mPa·s
same,viscosity,"303.15 K, 101.3 kPa, x1 = 0.5626",0.786 ± 0.014 mPa·s
same,viscosity,"303.15 K, 101.3 kPa, x1 = 0.6898",0.7655 ± 0.013 mPa·s
same,viscosity,"303.15 K, 101.3 kPa, x1 = 0.8348",0.7647 ± 0.013 mPa·s
same,viscosity,"303.15 K, 101.33 kPa, x2 = 0.0952",0.7883 ± 0.01 mPa·s
same,viscosity,"303.15 K, 101.33 kPa, x2 = 0.1976",0.7705 ± 0.0099 mPa·s
same,viscosity,"303.15 K, 101.33 kPa, x2 = 0.2988",0.7735 ± 0.0099 mPa·s
same,viscosity,"303.15 K, 101.33 kPa, x2 = 0.3894",0.7762 ± 0.01 mPa·s
same,viscosity,"303.15 K, 101.33 kPa, x2 = 0.4879",0.7852 ± 0.01 mPa·s
same,viscosity,"303.15 K, 101.33 kPa, x2 = 0.5929",0.8063 ± 0.01 mPa·s
same,viscosity,"303.15 K, 101.33 kPa, x2 = 0.7828",0.8609 ± 0.011 mPa·s
same,viscosity,"303.15 K, 101.33 kPa, x2 = 0.9018",0.921 ± 0.012 mPa·s
same,viscosity,"308.15 K, 101 kPa, x2 = 0.0396",0.741 ± 0.007 mPa·s
same,viscosity,"308.15 K, 101 kPa, x2 = 0.0718",0.729 ± 0.007 mPa·s
same,viscosity,"308.15 K, 101 kPa, x2 = 0.1435",0.716 ± 0.007 mPa·s
same,viscosity,"308.15 K, 101 kPa, x2 = 0.3225",0.707 ± 0.007 mPa·s
same,viscosity,"308.15 K, 101 kPa, x2 = 0.4832",0.726 ± 0.007 mPa·s
same,viscosity,"308.15 K, 101 kPa, x2 = 0.6269",0.752 ± 0.007 mPa·s
same,viscosity,"308.15 K, 101 kPa, x2 = 0.7067",0.772 ± 0.008 mPa·s
same,viscosity,"308.15 K, 101 kPa, x2 = 0.8205",0.807 ± 0.008 mPa·s
same,viscosity,"308.15 K, 101 kPa, x2 = 0.8789",0.835 ± 0.008 mPa·s
same,viscosity,"308.15 K, 101 kPa, x2 = 0.9548",0.875 ± 0.008 mPa·s
same,viscosity,"308.15 K, 101.3 kPa, x1 = 0.0565",0.8683 ± 0.015 mPa·s
same,viscosity,"308.15 K, 101.3 kPa, x1 = 0.1188",0.8383 ± 0.015 mPa·s
same,viscosity,"308.15 K, 101.3 kPa, x1 = 0.1894",0.8039 ± 0.014 mPa·s
same,viscosity,"308.15 K, 101.3 kPa, x1 = 0.2674",0.7793 ± 0.014 mPa·s
same,viscosity,"308.15 K, 101.3 kPa, x1 = 0.3539",0.7578 ± 0.013 mPa·s
same,viscosity,"308.15 K, 101.3 kPa, x1 = 0.4506",0.7384 ± 0.013 mPa·s
same,viscosity,"308.15 K, 101.3 kPa, x1 = 0.5626",0.7191 ± 0.013 mPa·s
same,viscosity,"308.15 K, 101.3 kPa, x1 = 0.6898",0.7052 ± 0.012 mPa·s
same,viscosity,"308.15 K, 101.3 kPa, x1 = 0.8348",0.7051 ± 0.012 mPa·s
same,viscosity,"318.15 K, 101 kPa, x2 = 0.0396",0.632 ± 0.006 mPa·s
same,viscosity,"318.15 K, 101 kPa, x2 = 0.0718",0.627 ± 0.006 mPa·s
same,viscosity,"318.15 K, 101 kPa, x2 = 0.1435",0.614 ± 0.006 mPa·s
same,viscosity,"318.15 K, 101 kPa, x2 = 0.3225",0.601 ± 0.006 mPa·s
same,viscosity,"318.15 K, 101 kPa, x2 = 0.4832",0.616 ± 0.006 mPa·s
same,viscosity,"318.15 K, 101 kPa, x2 = 0.6269",0.634 ± 0.006 mPa·s
same,viscosity,"318.15 K, 101 kPa, x2 = 0.7067",0.649 ± 0.007 mPa·s
same,viscosity,"318.15 K, 101 kPa, x2 = 0.8205",0.68 ± 0.007 mPa·s
same,viscosity,"318.15 K, 101 kPa, x2 = 0.8789",0.701 ± 0.007 mPa·s
same,viscosity,"318.15 K, 101 kPa, x2 = 0.9548",0.736 ± 0.007 mPa·s
